These results are taken from patent publication US12679845B2, “Crystal form of triazolopyridine-substituted indazole compound and preparation method therefor” (SHENZHEN OPTIMUM BIOLOGICAL TECHNOLOGY CO., LTD, priority 2021, dated 2026).

Each structure is given as a SMILES string.

Series [1] is described as follows: In vivo PK study in Lewis female rats. The settings on record: rat, po 0.3 mg/kg, plasma. The method, then:
The animals were weighed before administration, and the administration volume was calculated based on the body weight.
Approximately 0.2 mL of whole blood sample was collected at the specified time by jugular venipuncture (or other appropriate blood collection site), and the actual blood collection time was recorded in the experimental record. The acceptable error for the collection time point is ±1 minute within 1 hour after administration, and ±5% of the theoretical time for other time points. All blood samples were immediately transferred to labeled commercial centrifuge tubes containing K2-EDTA. After collection, the blood sample was centrifuged at 4° C., 3200 g for 10 minutes to aspirate the supernatant plasma, which was immediately placed in dry ice and then stored at −60° C. or lower for LC-MS/MS analysis.
The concentration of the test sample in plasma was determined by the LC-MS/MS bioanalytical method.

Series [2] is described as follows: Hygroscopicity study by dynamic vapor sorption (DVS). It is filed as physicochemical. The settings on record: 25° C.; for Hygroscopic weight gain (ΔW): 80% RH compared to 0% RH. As for the experimental part: • Instrument model: TA Discovery TGA 5500 thermal gravimetric analyzer • Test method: The sample (2 to 5 mg) is placed in a platinum pot and tested under the protection of 25 mL/min dry nitrogen, and the method is: heating from room temperature to 350° C. at a rate of 10° C./min. Dynamic Vapor Sorption (DVS) Method of the Present Disclosure • Instrument model: SMS (Surface Measurement Systems) dynamic vapor sorption analyzer • Test conditions: The sample (10 to 15 mg) is taken and placed in a DVS sample dish for testing.
The detailed DVS parameters are as follows: • Temperature: 25° C. • Equilibrium: dm/dt=0.002%/min (minimum: 10 min, maximum: 180 min) • Drying: drying for 120 min under 0% RH RH (%) Test Gradient: • 10% (0% RH to 90% RH, 90% RH to 0% RH) • 5% (90% RH to 95% RH, 95% RH to 90% RH) RH (%) • RH (%) test gradient range: 0% to 95%
SMS DVS Advantage dynamic vapor sorption analyzer
10 to 15 mg of the crystal form S of the compound of formula (I) was taken and placed in a DVS sample disk for testing.

Series [3] deals with MMTV transcriptional activity (GR). Description: MMTV_GR transcriptional activation activity assay, luciferase reporter gene in HeLa cells. It is filed as cell-based. From the text:
Experimental Example 2: In Vitro Assay of Compounds for Activation of MMTV Transcriptional Activity in Luciferase Reporter Gene Screening System
The mouse mammary tumor virus (MMTV) promoter contains specific binding sites that activate GR (GREs). To determine the activity of the compound, a reporter gene (luciferase) was inserted behind the MMTV promoter, and the structure was expressed in a stable manner in the genome of the HeLa cell line. The MMTV promoter was activated using the test compound to induce the luciferase expression, and its activity was detected by luminescence measurements.
The final DMSO experimental concentration was 0.1%.
MMTV_GR Transcriptional Activation Activity Assay
1) Cell inoculation: Fresh cells were inoculated into a 384-well white transparent bottom assay plate at 4×10^3 cells/30 μL/well and incubated in a 37° C., 5% CO2 incubator for 24 hours.
2) Compound preparation: The compound plate was configured before the start of the experiment. […]
4) 30 μL of Bright-Glo fluorescence assay reagent was transferred to the cell plate. […]
6) The fluorescence value was determined using an Envision plate reader. […]
The concentration curve of the test compound was plotted using the graphing software GraphPad Prism5, and the […] value was calculated.
(In general: Reporter assays use an easily measured gene product as a stand-in for the process of interest.)

Series [4] in a line: Solid stability test (XRPD) under high temperature, high humidity and strong light. It is filed as physicochemical. From the text:
For samples placed under high temperature and high humidity conditions, the vial was sealed with aluminum foil punched with small holes to ensure that the samples could fully contact with the ambient air; for samples placed under strong light conditions, the vial was sealed with a threaded cap. The samples placed under different conditions were sampled and detected (XRPD) on day 5, day 10, and month 3, and the results were compared with the initial results on day 0.

In series [1], `CC(C)[C@H](NC(=O)C(C)(F)F)[C@H](Oc1ccc2c(cnn2-c2ccc3nncn3c2)c1)c1ccccc1` [listing 1 of 2 here] came in with an AUC of 3.15 µM·h. Further, in series [1], the highest level (Cmax) was 361 nM. Moreover, the Tmax in series [1] was 4.5 h. The half-life in series [1] is 3.57 h. In addition, the Classification of hygroscopicity entry in series [2] (80% RH) is “slightly hygroscopic”. For the same compound, the “Hygroscopic weight gain (ΔW)” value in series [2] (listed as crystal form Q of the compound of formula (I)) was 0.21%. The EC50 in series [3] (Homo sapiens, 20 to 24 h, read-out: TA (MMTV transcriptional activation activity) EC50) came out at 7.72 nM. In addition, in series [3] (positive control 1000 nM Dexamethasone), the “TA (MMTV transcriptional activation activity) Effect” value amounted to 63.86%. In addition, the “Crystal form (XRPD)” value is recorded as “Crystal form Q” in series [4] (Day 0, initial); “Crystal form Q” in series [4] (High humidity (room temperature/relative humidity: 92.5%, open), Day 5); “Crystal form Q” in series [4] (High humidity (room temperature/relative humidity: 92.5%, open), Day 10); “Crystal form Q” in series [4] (High humidity (room temperature/relative humidity: 92.5%, open), Month 3); “Crystal form Q” in series [4] (High temperature (60° C., open), Day 5); “Crystal form Q” in series [4] (High temperature (60° C., open), Day 10). Also, the “Crystal form (XRPD)” value in series [4] (High temperature (60° C., open), Month 3) is reported as “Crystal form Q”; in series [4] (Strong light (5000 lx, sealed), Day 5), “Crystal form Q”; in series [4] (Strong light (5000 lx, sealed), Day 10), “Crystal form Q”; in series [4] (Strong light (5000 lx, sealed), Month 3), “Crystal form Q”.
For `CC(C)[C@H](NC(=O)C(C)(F)F)[C@H](Oc1ccc2c(cnn2-c2ccc3nncn3c2)c1)c1ccccc1` [listing 2 of 2 here], in series [2], the “Hygroscopic weight gain (ΔW)” value is given as 0.6%.

The term AUC denotes the area under the concentration-time curve, a measure of exposure. A low value points to less exposure. The Cmax is the maximum level reached in the sampled fluid or tissue. As a reminder, the Tmax is the time at which the peak concentration occurs. As a reminder, the half-life is how long it takes for the measured level to halve. Read a high half-life as slow decline. For orientation: EC50 means the concentration needed to bring the measured effect to its halfway point.
